The values that follow are results of earlier work, collected in patent publication EP0775491A1, “IMMUNOPOTENTIATOR” (TAYCA CORPORATION, priority 1995, dated 1997).

For the series the following is noted: oral administration to rats.

Read-outs that look alike come from different tables or passages of the source.

Regarding `COC(COC(N)=O)C1=C(N2CC2)C(=O)C(C)=C(N2CC2)C1=O` (stereo not shown) [Carboquone], the 50% lethal dose (LD50) was 27.3 mg/kg.
As to `O=P1(N(CCCl)CCCl)NCCCO1` (stereo not shown) [Cyclophosphide], the LD50 reads like this: (female) 118 mg/kg; (male) 100 mg/kg.
Turning to `O=c1[nH]cc(F)c(=O)[nH]1` [Fluorouracil], the median lethal dose (LD50) was 781 mg/kg.
